The term melting point denotes the temperature of the solid-liquid transition.

SMILES strings stand for the structures.

One data set has as its system Lp(a). To be noted: man, reported in the literature; cited from earlier work.
The conditions of data set [1]: high doses necessary for efficacy (4 g/day); cited from earlier work.

`CC[C@H](C)C(=O)O[C@H]1C[C@@H](C)C=C2C=C[C@H](C)[C@H](CC[C@@H]3C[C@@H](O)CC(=O)O3)[C@H]21` [lovastatin]: the “effect on Lp(a) levels” value with Lp(a) is on record as “do not affect Lp(a) levels”.

`CCOP(=O)(CNCc1ccnc(-c2cc(OC)c(O)c(OC)c2)c1)OCC`: the melting point is 124 to 126 °C.

Turning to `CCOP(=O)(CNCc1cccnc1-c1cc(OC)c(O)c(OC)c1)OCC`, the melting point was in the range of 99 to 101 °C.

For `CC(C)(Sc1cc(C(C)(C)C)c(O)c(C(C)(C)C)c1)Sc1cc(C(C)(C)C)c(O)c(C(C)(C)C)c1` [probucol], the “effect on Lp(a) levels” value with Lp(a) is listed as “equally ineffective”.

For the compound `O=C(O)c1cccnc1` [nicotinic acid], the serious side-effects entry in data set [1] was “flushing, vasodilation and hepatotoxicity”. Further, in the data set with Lp(a), the “effect on Lp(a) levels” value is on record as “lower Lp(a)”.

The values above are taken from patent US6660724B1, “Compounds and pharmaceutical compositions containing them” (Ilex Products, Inc., priority 1995, dated 2003).
